These are literature values, as cited in patent US20200113899A1, “STATIN COMPOSITIONS AND METHODS FOR USE IN TREATING SYNUCLEINOPATHIES” (CHASE THERAPEUTICS CORPORATION, priority 2017, published 2020).

Molecules are shown by their SMILES.

Series [1] deals with alpha-synuclein. The settings on record: transgenic mouse models.
The conditions of series [2]: 535 PD patients.
For series [3] the following is noted: pramipexole 5 mg/day.
The test system of series [4] is alpha-synuclein. The settings on record: Parkinson patients, therapeutic doses, compared with pre-treatment values; magnitude of the effect small.

Turning to `CC[C@H](C)C(=O)O[C@H]1C[C@@H](C)C=C2C=C[C@H](C)[C@H](CC[C@@H]3C[C@@H](O)CC(=O)O3)[C@H]21` [lovastatin, (1S,3R,7S,8S,8aR)-8-{2-[(2R,4R)-4-Hydroxy-6-oxooxan-2-yl]ethyl}-3,7-dimethyl-1,2,3,7,8,8a-hexahydronaphthalen-1-yl (2S)-2-methylbutanoate], in the series on alpha-synuclein [1], the “alpha-synuclein accumulation and oxidation” value is listed as “ameliorated”.
Regarding `CCCN[C@H]1CCc2nc(N)sc2C1` [pramipexole, (S)-6-propylamino-4,5,6,7-tetrahydro-1,3-benzothiazole-2-amine], the “neuroprotective (disease modifying) activity” value in series [2] is “failed to evidence neuroprotective (i.e., disease modifying) activity”. For the same molecule, in series [3], the patients with nausea was 76% and the patients with vomiting is 39%. For the same molecule, the “patients not able to complete the study” value in series [3] (presumably because of intolerable GI adverse events) is recorded as 36%. In addition, in the series on alpha-synuclein [4], the “relative expression of alpha-synuclein” value is recorded as “significantly lowered”.
As to `CC(C)c1nc(N(C)S(C)(=O)=O)nc(-c2ccc(F)cc2)c1/C=C/[C@@H](O)C[C@@H](O)CC(=O)O` [rosuvastatin, (3R,5S,6E)-7-[4-(4-Fluorophenyl)-2-(N-methylmethanesulfonamido)-6-(propan-2-yl)pyrimidin-5-yl]-3,5-dihydroxyhept-6-enoic acid], in the series on SH-SY5Y cells, the “effect against rotenone-induced neurotoxicity” value was “neuroprotective effect” and the α-synuclein expression entry is on record as “modulation”.
